The assay deals with melanoma B16 tumors overexpressing OVA antigen (B16-OVA). As to conditions: mouse, in vivo.

SMILES strings stand for the structures.

`NS(=O)(=O)OC[C@@H]1C[C@H](n2ccc3c(N[C@H]4CCc5ccccc54)ncnc32)C[C@@H]1O` [pevonedistat, ((1S,2S,4S)-4-(4-(((S)-2,3-dihydro-1H-inden-1-yl)amino)-7H-pyrrolo[2,3-d]pyrimidin-7-yl)-2-hydroxycyclopentyl) methyl sulfamate]: the survival entry is on record as “significantly prolonged survival”.

The record behind these values is patent US20260015592A1, “NEDDYLATION-ACTIVATING ENZYME INHIBITORS AS VIRAL SENSITIZERS AND USES THEREOF” (priority 2022, published 2026).
